In patent US9488664B2, “Diagnostic agent for tumor” (SBI Pharmaceuticals Co., Ltd., priority 2012, dated 2016):

Test: Side effects (stomach discomfort, nausea) in individuals given 5-ALA
Format: in vivo, human
Procedure: A total of eight individuals including seven healthy volunteers in whom no particular abnormality was found by health examination and the like and one volunteer with a malignant tumor, who was given a diagnosis of cancer by a doctor, were studied. The average body weight of the volunteers was 50 kg. The volunteers were instructed to ingest one capsule encapsulating 100 mg of 5-ALA before sleep and collect the first urine at the time of wake-up. Also, they were instructed to ingest, on another day, three capsules, each encapsulating 100 mg of 5-ALA, before sleep and collect the first urine at the time of wake-up.
From the above results, it was shown that administration at a dose of 300 mg can distinguish between not only the presence and absence of a tumor, but also a malignant tumor and a benign tumor. Also, it was shown that a malignant tumor can be detected by administering 100 mg of 5-ALA.
A total of 10 individuals including five healthy volunteers in whom no particular abnormality was found by health examination and the like and five volunteers with a malignant tumor, who were given a diagnosis of cancer by a doctor, ingested 1 g of 5-ALA. […]

For NCC(=O)CCC(=O)O [5-ALA, 5-aminolevulinic acid], the “stomach discomfort and nausea” value (100 mg and 300 mg 5-ALA oral, eight individuals) was “neither stomach discomfort nor nausea was observed” and the “stomach discomfort and nausea” value (1 g 5-ALA ingested, 10 individuals) was “some of the volunteers developed stomach discomfort and nausea”.
